From patent US9134327B2, “STAT3 and TYK2 as drug targets for neurodegenerative diseases” (Biotechnology Research Corporation Limited, priority 2008, dated 2015)

Assays:
[1] = tested on: STAT3 (P-Tyr, Tyr705); assay: Tyrosine phosphorylation of STAT3 in cortical neurons, immunoblot; format: cell-based, rat; details: for inhibition of Aβ-induced tyrosine phosphorylation of STAT3: primary cortical neurons pretreated with inhibitor 2 hrs, then Aβ25-35 for 4 hrs or 24 hrs
Procedure: FIG. 2: Tyrosine phosphorylation of STAT3 is increased in cultured cortical neurons stimulated with Aβ25-35. Primary cortical neurons at 7 DIV were treated with Aβ25-35 (40 μM; H2O served as solvent control) for various times as indicated. Cell lysates were collected and subjected to immunoblotting using P-Tyr STAT3 and total STAT3 antibodies.
(§1) FIG. 4: Tyk2 is required for beta-amyloid peptide-induced tyrosine phosphorylation of STAT3 and neuronal cell death. A. Primary cortical neurons were pretreated with various inhibitors including a potent inhibitor of JAK (JAK inhibitor 1), a JAK2 inhibitor (AG490), a Src tyrosine kinase inhibitor (PP2) and a protein synthesis inhibitor (cycloheximide) for 2 hrs as indicated, followed by treatment with Aβ25-35 peptide for 4 hrs or 24 rs. The cell lysates were immunoblotted with P-Tyr STAT3 and total STAT3 antibody. B. Primary cortical neurons were treated with Aβ25-35. The cell lysates were immunoprecipitated using Tyk2 or JAK2 antibody, and then subjected to Western blot analysis for phospho-tyrosine (P-Tyr) antibody. C. Primary cortical neurons prepared from Tyk2^−/− mice were treated with Aβ25-35. The cell lysates were subjected to immunoblotting using P-Tyr STAT3, total STAT3 and caspase-3 antibody. Quantification analysis of fold change in tyrosine phosphorylated STAT3 and cleaved caspase-3 (bottom panels).
Cultured rat cortical neurons were used as a cell culture model to investigate the role of STAT3 tyrosine phosphorylation in AD. The cortical neurons (7 DIV) were treated with Aβ peptide 25-35.
Since Aβ induced tyrosine phosphorylation of STAT3, the next aim was to identify the upstream regulators of STAT3. Cortical neurons were pre-treated with different inhibitors prior to […] treatment. […] Cortical neurons were treated with Aβ peptide for 1 hr. Endogenous Tyk2 or JAK2 were immunoprecipitated by specific antibodies, and the precipitates were detected by monoclonal phospho-tyrosine antibody, 4G10.
Preparation of Brain Extracts, Cell Extracts, and Western Blots: Four Brain Parts including cortex, hippocampus, cerebellum and striatum were dissected from transgenic mice of various stages (from 2 months to 18 months) and kept on dry ice. Frozen brain tissues were homogenized in homogenizing buffer (25 mM Tris-HCl, pH 7.4, 150 mM NaCl, 1 mM EDTA, pH 7.4, 50 mM NaF) with various protease inhibitors. The supernatant was kept for Western Blotting and the pellets were reextracted using RIPA lysis buffer (150 mM NaCl, 1% (v/v) Nonidet P-40, 0.5% deoxycholic acid, 0.1% (w/v) SDS) containing various protease inhibitors (2 μg/ml aprotinin, 1 mM phenylmethylsulfonyl fluoride, 5 mM benzamidine, 1 mM sodium orthovanadate (NaOV), and 10 μg/ml soybean trypsin inhibitor). Primary cultured cortical neurons or PC12 cells were harvested and lysed in RIPA lysis buffer containing protease inhibitors.

[2] = tested on: iNOS gene expression; assay: iNOS mRNA in primary cortical neurons, real-time PCR; format: cell-based
Procedure: (§2) FIG. 5: Transcription activity of STAT3 in PC12 cells and iNOS RNA in cultured cortical neurons increases upon stimulation with Aβ25-35. A. PC12 cells were transfected with a STAT1 (pGAS-Luc) or STAT3 (pSTAT3-Luc) reporter gene construct together with an internal control plasmid (β-galactosidase-pCMV). The cells were differentiated by NGF for 4 days, and were then treated with Aβ25-35 or NGF (positive control) for 1 day. Luciferase activity was measured and normalized against the β-galactosidase activity in the samples. Results were normalized with β-galactosidase activity; mean±S.E., n=3; *, p<0.05. B. Primary cortical neurons at 7 DIV were pretreated with STAT3 inhibitor or JAK inhibitor I for 30 minutes, followed by Aβ25-35 (40 μM) treatment for 6 hours. Total RNA was collected and subjected to reverse transcription. The cDNA was then subjected to real-time PCR analysis using iNOS primers.
Primary cortical neurons were treated with Aβ peptide for 6 hr. […]
Quantitative RT-PCR: Total RNA was isolated from Aβ-treated cortical neurons using RNeasy mini kit (Qiagen) according to the manufacturer's instruction. […] Quantitative PCR was performed with specific primers targeting specific genes using Bio-Rad MX3000P real-time PCR system.

[3] = tested on: STAT3; assay: STAT3 luciferase reporter (pSTAT3-Luc) in PC12 cells; format: cell-based; details: PC12 cells differentiated by NGF 4 days, treated 1 day
Procedure: as §2
(§3) To further characterize if Aβ peptide effects STAT3 transcriptional activity, PC12 cells were transfected with a luciferase construct linked to the STAT3-response enhancer element (pSTAT3-Luc). The luciferase construct linked to the STAT1-response enhancer element (pGAS-Luc) was used as a control.

[4] = tested on: STAT1; assay: STAT1 luciferase reporter (pGAS-Luc) in PC12 cells; format: cell-based; details: PC12 cells differentiated by NGF 4 days, treated 1 day
Procedure: as §2, §3

[5] = tested on: Tyk2; assay: Tyk2 tyrosine phosphorylation in cortical neurons, immunoprecipitation and phospho-tyrosine blot; format: cell-based; details: cortical neurons treated 1 hr; IP Tyk2, 4G10 blot
Description: as §1
Since Aβ induced tyrosine phosphorylation of STAT3, the next aim was to identify the upstream regulators of STAT3. Cortical neurons were pre-treated with different inhibitors prior to iv treatment. […] Endogenous Tyk2 or JAK2 were immunoprecipitated by specific antibodies, and the precipitates were detected by monoclonal phospho-tyrosine antibody, 4G10.

## N#C/C(=C/c1ccc(O)c(O)c1)C(=O)NCc1ccccc1 [AG490]
[1]
  inhibition of Aβ-induced tyrosine phosphorylation of STAT3: did not exhibit similar inhibitory effects

## CC(C)(C)c1nc2c3cc[nH]c(=O)c3c3cc(F)ccc3c2[nH]1 [JAK inhibitor 1]
[1]
  inhibition of Aβ-induced tyrosine phosphorylation of STAT3: completely inhibited
[2]; primary cortical neurons 7 DIV, 30 minutes pretreatment, then Aβ25-35 40 μM for 6 hours
  block of Aβ-induced increase in iNOS gene expression: blocked

## CC(C)(C)n1nc(-c2ccc(Cl)cc2)c2c(N)ncnc21 [PP2]
[1]
  inhibition of Aβ-induced tyrosine phosphorylation of STAT3: neither the Src kinase inhibitor PP2 nor the protein synthesis inhibitor cycloheximide affected

## C[C@@H]1C[C@@H]([C@H](O)CC2CC(=O)NC(=O)C2)C(=O)[C@@H](C)C1 [cycloheximide]
[1]
  inhibition of Aβ-induced tyrosine phosphorylation of STAT3: neither the Src kinase inhibitor PP2 nor the protein synthesis inhibitor cycloheximide affected

## Aβ peptide 25-35: β-amyloid peptide fragment 25-35 used to stimulate neurons and PC12 cells (GSNKGAIIGLM; Amyloid-beta protein 42; UniProt P05067 696-706, looked up, fragment)
[1]; cortical neurons 7 DIV, Aβ25-35 40 μM, up to 4 hrs
  tyrosine phosphorylation of STAT3 induced by treatment: significant increase in tyrosine phosphorylation of STAT3
[2]; primary cortical neurons, 6 hr treatment
  iNOS gene expression level after treatment: increased
[3]
  STAT3 promoter activity (pSTAT3-Luc luciferase): only induced the STAT3 promoter activity
[4]
  STAT1 promoter activity (pGAS-Luc luciferase): only induced the STAT3 promoter activity
[5]
  Tyk2 tyrosine phosphorylation after treatment: could be detected

B1: NGF: growth factor used to differentiate PC12 cells; positive control in the reporter assay (protein, UniProt P25427 122-241, looked up)
Beta-nerve growth factor: SSTHPVFHMGEFSVCDSVSVWVGDKTTATDIKGKEVTVLGEVNINNSVFKQYFFETKCRAPNPVESGCRGIDSKHWNSYCTTTHTFVKALTTDDKQAAWRFIRIDTACVCVLSRKAARRG
[3]
  STAT3 promoter activity (pSTAT3-Luc luciferase): induced the promoter activity of both STAT3 and STAT1
[4]
  STAT1 promoter activity (pGAS-Luc luciferase): induced the promoter activity of both STAT3 and STAT1
